17 molecules from ChEMBL document CHEMBL1123900, “Thienothiopyran-2-sulfonamides: a novel class of water-soluble carbonic anhydrase inhibitors” (J Med Chem, 1987) can be followed below.

A short description of data set [1]: Total solubility measured on pH 7.4 buffer at 25 degree C. The settings on record: read-out: S. It counts as ADME.
A short description of data set [2]: pKa value in 30% EtOH-H20. It counts as physicochemical. The settings on record: 30% EtOH-H2O.
Data set [3] addresses T1, Carbonic anhydrase 2 (Homo sapiens, UniProt P00918).
Description: In vitro inhibition against purified human erythrocyte carbonic anhydrase II was determined (acetozolamide used as control.)
The target in data set [4] is T1, Carbonic anhydrase 2. This is another data set of the same source.
Description: In vitro binding to human erythrocyte Carbonic anhydrase II was determined by fluorescence competition assay employing the fluorescent CA inhibitor dansylamide
Data set [5] is described as follows: Solubility (pH 7.4 buffer ar 25 degree C). It counts as physicochemical. The settings on record: read-out: S.
The target in data set [6] is T1, Carbonic anhydrase 2. The source holds these as a separate data set.
Description: In vitro binding to human erythrocyte carbonic anhydrase was determined by fluorescence competition assay employing the fluorescent CA inhibitor dansylamide
The nature of data set [7]: Partition coefficient determined in 1-octanol buffer pH 7.4. It counts as physicochemical. To be noted: octanol/water.

≈ marks a conversion by molar mass, not a printed value.

As a reminder, the pKa is the pH at which an ionisable group is half protonated. The low end stands for a stronger acid or weaker base, the high end for a weaker acid or stronger base. As usually defined, the IC50 is the midpoint of a concentration-inhibition curve. A higher IC50 goes with weaker potency in that assay. By Ki is commonly meant a measure of affinity in units of concentration, obtained from inhibition or displacement. A low value points to higher affinity. Take `NS(=O)(=O)c1cc2c(s1)C(=O)CCS2`: the solubility in data set [1] turned out to be 80 µg/mL (≈ 0.321 mM). In addition, in data set [2], the pKa worked out at 8.45. Moreover, half-maximal inhibition against Carbonic anhydrase 2 [3] (IC50) required 3.5 nM. Further, the affinity at Carbonic anhydrase 2 [4] corresponds to a Ki of 1.15 nM.
Turning to `NS(=O)(=O)c1cc2c(s1)C(O)CC[S+]2[O-]` (configuration not stated), the solubility in data set [5] turned out to be 7200 µg/mL (≈ 26.9 mM). The same molecule showed a pKa in data set [2] of 8.82. The molecule further registered a half-maximal inhibitory concentration (IC50) against Carbonic anhydrase 2 [3] of 250 nM. This molecule also displayed a Ki at Carbonic anhydrase 2 [6] of 309 nM.
`NS(=O)(=O)c1cc2c(s1)CC(O)CS2(=O)=O` (configuration not stated) displayed a Partition coefficient in data set [7] of 0.2. For the same molecule, the solubility in data set [5] is 7300 µg/mL (≈ 25.8 mM). Further, in data set [2], the pKa worked out at 8.52. For the same molecule, the IC50 on Carbonic anhydrase 2 [3] is 40 nM. The molecule also registered a Ki at Carbonic anhydrase 2 [6] of 18.2 nM.
For `NS(=O)(=O)c1cc2c(s1)SCCC2O` (configuration not stated), the solubility in data set [5] is 640 µg/mL (≈ 2.55 mM). Also, in data set [2], the pKa amounted to 9.4. Further, on Carbonic anhydrase 2 [3], the IC50 came to 30 nM. In addition, the Ki at Carbonic anhydrase 2 [4] came to 28 nM.
Regarding `NS(=O)(=O)c1cc2c(s1)C(=O)CCS2(=O)=O`, the Partition coefficient in data set [7] is recorded as 0.63. Also, in data set [5], the solubility stood at 60 µg/mL (≈ 0.213 mM). The same molecule came in with a pKa in data set [2] of 7.32. The same molecule returned an IC50 against Carbonic anhydrase 2 [3] of 22 nM. Besides, the Ki on Carbonic anhydrase 2 [4] worked out at 14.1 nM.
For the molecule `NS(=O)(=O)c1cc2c(s1)SCCC2=O`, the solubility in data set [5] worked out at 70 µg/mL (≈ 0.281 mM). In data set [2], this molecule yielded a pKa of 8.6. For the same molecule, the IC50 on Carbonic anhydrase 2 [3] turned out to be 8.5 nM. The affinity at Carbonic anhydrase 2 [4], expressed as Ki, was 3.63 nM.
For `NS(=O)(=O)c1cc2c(s1)[S+]([O-])CCC2O` (configuration not stated), the solubility in data set [5] turned out to be 12000 µg/mL (≈ 44.9 mM). In addition, the pKa in data set [2] amounted to 8.68. The IC50 against Carbonic anhydrase 2 [3] was 100 nM. Further, the Ki at Carbonic anhydrase 2 [6] worked out at 104 nM.
In data set [7], `NS(=O)(=O)c1cc2c(s1)S(=O)(=O)CC[C@H]2O` yielded a Partition coefficient of 0.42. Also, the solubility in data set [5] is 6300 µg/mL (≈ 22.2 mM). In data set [2], this molecule displayed a pKa of 8.35.
As for `NS(=O)(=O)c1cc2c(s1)S(=O)(=O)CC[C@@H]2O`, the Partition coefficient in data set [7] worked out at 0.42. Also, the solubility in data set [5] turned out to be 6400 µg/mL (≈ 22.6 mM). In data set [2], this molecule had a pKa of 8.3.
Turning to `CC(C)(C)C(=O)Oc1ccc2nc(S(N)(=O)=O)sc2c1`, the solubility in data set [5] stood at 58 µg/mL (≈ 0.184 mM).
Turning to `NS(=O)(=O)c1cc2c(s1)S(=O)(=O)CCC2O` (configuration not stated), the Partition coefficient in data set [7] was 0.45. Further, the solubility in data set [5] was determined as 12500 µg/mL (≈ 44.1 mM). The molecule also showed a pKa in data set [2] of 8.35.
For the molecule `NS(=O)(=O)c1cc2c(s1)S(=O)(=O)CCC2`, the solubility in data set [5] came to 560 µg/mL (≈ 2.09 mM). In data set [2], the pKa turned out to be 8.35. This molecule also returned an IC50 against Carbonic anhydrase 2 [3] of 4.5 nM. At Carbonic anhydrase 2 [6], the affinity, expressed as Ki, was 3.3 nM.
For `NS(=O)(=O)c1cc2c(s1)S(=O)(=O)CCC2=O`, the Partition coefficient in data set [7] is listed as 0.92. Also, in data set [5], the solubility is 270 µg/mL (≈ 0.96 mM). The molecule further came in with a pKa in data set [2] of 7.92. In addition, on Carbonic anhydrase 2 [3], it took 5 nM to reach half-maximal inhibition (IC50).
With `NS(=O)(=O)c1cc2c(s1)C(O)CCS2(=O)=O` (configuration not stated), the solubility in data set [5] turned out to be 15000 µg/mL (≈ 52.9 mM). Further, the pKa in data set [2] stood at 8.34. Besides, the IC50 against Carbonic anhydrase 2 [3] is 40 nM. The same molecule returned a Ki at Carbonic anhydrase 2 [4] of 30.5 nM.
For `NS(=O)(=O)c1cc2c(s1)S(=O)(=O)CC(O)C2` (configuration not stated), the solubility in data set [5] stood at 8200 µg/mL (≈ 28.9 mM). This molecule also registered a pKa in data set [2] of 8.6. This molecule also registered an IC50 against Carbonic anhydrase 2 [3] of 10 nM. Besides, the affinity on Carbonic anhydrase 2 [6] corresponds to a Ki of 7.11 nM.
In turn, `NS(=O)(=O)c1cc2c(s1)C(O)CCS2` (configuration not stated) showed a Partition coefficient in data set [7] of 3. The solubility in data set [5] worked out at 1400 µg/mL (≈ 5.57 mM). In data set [2], the pKa amounted to 9. Half-maximal inhibition at Carbonic anhydrase 2 [3] (IC50) was put at 23 nM. Besides, on Carbonic anhydrase 2 [4], affinity was put at a Ki of 14.2 nM.
Take `CCOc1ccc2nc(S(N)(=O)=O)sc2c1` [ETHOXZOLAMIDE]: the solubility in data set [5] came out at 24 µg/mL (≈ 0.0929 mM).
